Values quoted from earlier work as cited in US6632827B2 (Sepracor Inc., priority 1996, dated 2003).
One block for each compound: values may come before it.

How the values were obtained:
5HT4 receptors = biological target: T1, 5HT4 receptors (Mus musculus, UniProt P97288); details: cultured mouse embryo colliculi neurons; read-out: EC50 concentration, cAMP generation as endpoint for 5HT4 activity
T1 construct: Using cultured mouse embryo colliculi neurons and cAMP generation as an endpoint for designating 5HT4 activity; host or cells: cultured mouse embryo colliculi neurons
T1 sequence (P97288 whole entry): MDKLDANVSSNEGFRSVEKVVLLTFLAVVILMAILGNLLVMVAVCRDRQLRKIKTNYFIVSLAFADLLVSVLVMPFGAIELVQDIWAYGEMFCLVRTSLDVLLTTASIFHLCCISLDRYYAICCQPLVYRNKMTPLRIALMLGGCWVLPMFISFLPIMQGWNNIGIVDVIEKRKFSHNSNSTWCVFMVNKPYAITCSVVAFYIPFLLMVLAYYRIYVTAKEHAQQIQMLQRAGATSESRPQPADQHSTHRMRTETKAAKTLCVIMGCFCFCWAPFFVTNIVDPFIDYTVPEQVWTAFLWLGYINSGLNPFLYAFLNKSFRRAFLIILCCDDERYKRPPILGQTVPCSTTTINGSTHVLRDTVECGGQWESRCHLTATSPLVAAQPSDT

[1] = co-administered ketoconazole
beta-adrenergic = details: S-enantiomer vs R-enantiomer

- EC50 (5HT4 receptors): 70 nM
- Bioavailability of the parent compound (oral administration to humans): 40-50%
- Fraction of dose metabolized (oxidative N-dealkylation or aromatic hydroxylation): More than 90%
- Increase in steady-state plasma levels [1]: 8 fold
Compound: COc1cc(N)c(Cl)cc1C(=O)N[C@H]1CCN(CCCOc2ccc(F)cc2)C[C@H]1OC (racemic) [(±) Cisapride, cis-4-amino-5-chloro-N-[1-[3-(4-fluorophenoxy)propyl]-3-methoxy-4-piperidinyl]-2-methoxybenzamide]

- Share of the drug found in urine (urine of humans 72 hours after dosing of cisapride): 50-80%
Compound: COc1cc(N)c(Cl)cc1C(=O)NC1CCNCC1OC (racemic) [(±) Norcisapride, 4-amino-5-chloro-N-(3-methoxy-4-piperidinyl)-2 methoxybenzamide]

Compound: CC(C)NCC(O)COc1cccc2ccccc12 (stereo not drawn) [propranolol]
- Potency of S-enantiomer relative to R-enantiomer (beta-adrenergic): 100 times
